Results taken from US8871264B2, “Immediate release tablet formulations” (AstraZeneca AB, priority 2009, dated 2014).
Where two headings read alike, the source gives them in different places.

Legend:
[1] = phosphate buffer pH 6.8, 37° C., 75 rpm, n=6; for Dissoln. % 10 min: tablets of Example 12, 10 min; for Dissoln. % 20 min: tablets of Example 12, 20 min; for Dissoln. % 30 min: tablets of Example 12, 30 min; for Dissoln. % 45 min: tablets of Example 12, 45 min; for Dissoln. % 75 min: tablets of Example 12, 75 min; for Dissolution % 10 min: tablets of Example 13, 10 min; for Dissolution % 20 min: tablets of Example 13, 20 min; for Dissolution % 30 min: tablets of Example 13, 30 min; for Dissolution % 45 min: tablets of Example 13, 45 min; for Dissoln % 75 min: tablets of Example 13, 75 min
[2] = system: type II diabetic patients; details: for adjusted mean change in HbA1c from baseline: after 24 weeks; for adjusted mean change in HbA1c from baseline / adjusted mean change in FPG from baseline at Week 24: type 2 diabetes patients; for change in total body weight: at 24 weeks
Procedure: The data represent findings from a randomized, double-blind, placebo-controlled study of 546 individuals with type 2 diabetes whose HbA1c was greater than or equal to 7.0 percent and less than or equal to 10 percent at baseline. […] Patients in all arms also received metformin (greater than or equal to 1500 mg/d). […] Exploratory endpoints included body weight decrease of greater than or equal to 5 percent or greater than or equal to 10 percent as well as body weight percent change from baseline.

[3] = combination of metformin and dapagliflozin, 24 weeks, compared to placebo plus metformin
[4] = dapagliflozin 2.5 mg plus metformin
[5] = dapagliflozin 5 mg plus metformin
[6] = dapagliflozin 10 mg plus metformin

In the case of `CN(C)C(=N)N=C(N)N` [Metformin], the “Dissoln. % 10 min” value [1] is reported as 41%, the “Dissoln. % 20 min” value [1] is reported as 80% and the “Dissoln. % 30 min” value [1] is reported as 97%. The “Dissoln. % 45 min” value [1] was 100%, the “Dissoln. % 75 min” value [1] was 100% and the “Dissolution % 10 min” value [1] was 41%. For the same compound, the “Dissolution % 20 min” value [1] was 81%, the “Dissolution % 30 min” value [1] was 98% and the “Dissolution % 45 min” value [1] was 100%. The “Dissoln % 75 min” value [1] was 100%.

For `CCOc1ccc(Cc2cc([C@@H]3O[C@H](CO)[C@@H](O)[C@H](O)[C@H]3O)ccc2Cl)cc1` [Dapagliflozin, (2S,3R,4R,5S,6R)-2-(4-chloro-3-(4-ethoxybenzyl)phenyl)-6-(hydroxymethyl)tetrahydro-2H-pyran-3,4,5-triol], the “fasting plasma glucose (FPG) levels” value [2, 3] was “reduced”, the “glycosylated hemoglobin levels (HbA1c)” value [2, 3] was “reduced” and the “mean reductions in body weight” value ([2]; compared to individuals taking placebo, 24 weeks) was “statistically greater mean reductions”. The “patients achieving weight losses greater than or equal to 5 percent” value ([2]; compared to placebo, exploratory endpoint, 24 weeks) was “more patients”, the “adjusted mean change in HbA1c from baseline” value (“adjusted mean change in HbA1c” for short) [2, 4] was −0.67% and the “change in total body weight” value [2, 4] was -2.21 kg. For the same compound, the “adjusted mean change in FPG from baseline at Week 24” value [2, 4] was -17.8 mg/dL, the “adjusted mean change in HbA1c” value [2, 5] was −0.70% and the “change in total body weight” value [2, 5] was -3.04 kg. For the same compound, the “adjusted mean change in HbA1c” value [2, 6] was −0.84%, the “change in total body weight” value [2, 6] was -2.86 kg and the “adjusted mean change in FPG from baseline at Week 24” value [2, 6] was −23.5 mg/dL/dl. For the same compound, the “Dissoln. % 10 min” value [1] was 38%, the “Dissoln. % 20 min” value [1] was 78% and the “Dissoln. % 30 min” value [1] was 96%. The “Dissoln. % 45 min” value [1] was 99%, the “Dissoln. % 75 min” value [1] was 99% and the “Dissolution % 10 min” value [1] was 37%. For the same compound, the “Dissolution % 20 min” value [1] was 77%, the “Dissolution % 30 min” value [1] was 95% and the “Dissolution % 45 min” value [1] was 97%. The “Dissoln % 75 min” value [1] was 97%.
